Assay results: PMC9501445 (2022)

Test system: 22GT (DNA, G4) GGGTTAGGGTTAGGGTTAGGGT
Test: ITC, global fit of coupled folding/binding model
Conditions: 100 mM K+; 1 mM cacodylate, 0.02 mM EDTA, pH 6.9, 3% DMSO, 25 °C; site 1 of 2 (intermediate I)

- ΔG°: -9.6 ± 0.6 kcal/mol
Structure (SMILES): C[n+]1cc(NC(=O)c2cccc(C(=O)Nc3cc4ccccc4[n+](C)c3)n2)cc2ccccc21
